Experimental data taken from US20200155555A1, “VITAMIN RECEPTOR DRUG DELIVERY CONJUGATES FOR TREATING INFLAMMATION” (Endocyte, Inc., priority 2007, published 2020).
Values joined by “and” are separate entries in the source; they are usually repeats but may differ in a detail not shown here. Equal entries are not always repeated.

What was measured:
[1] = system: rats with adjuvant-induced arthritis (AIA); assay: Adjuvant-induced arthritis (AIA) model; conditions: for Splenomagly (% increase in spleen weight relative to healthy rats) / % Inhibition in paw edema / % Weight loss: AIA rats; for % Weight loss: Day 24 relative to first day of treatment
Method: Female Lewis rats were fed a folate-deficient diet (Harlan Teklad, Indianapolis, Ind.) for 9-10 days prior to arthritis induction. The adjuvant-induced arthritis (AIA) was induced by intradermal inoculation (at the base of tail) of 0.5 mg of heat-killed Mycobacteria butyricum (BD Diagnostic Systems, Sparks, Md.) in 100 μL light mineral oil (Sigma). Ten days after arthritis induction, paw edema in rats was assessed using a modified arthritis scoring system: 0=no arthritis; 1=swelling in one type of joint; 2=swelling in two types of joint; 3=swelling in three types of joint; 4=swelling of the entire paw. A total score for each rat is calculated by summarizing the scores for each of the four paws, giving a maximum score of 16 for each rat. On Day 10 post arthritis induction, rats with a total arthritis score of ≥2 were removed from the study and the remaining rats were distributed evenly across the control and treatment groups (n=5 for all groups except that n=2-3 for healthy controls). All treatments started on Day 10 unless mentioned otherwise. […]
Rats with adjuvant arthritis were treated subcutaneously with EC0932 (250 nmol/kg) in the absence or presence of 500-fold excess of EC0923 (125 μmol/kg) on days 10, 13, 17, and 20 post arthritis induction. The animals in the healthy and arthritis control groups were left untreated. The arthritis scores and animal body weights were recorded three times a week (see FIG. 19A, B). At the completion of study (day 24), the rats were euthanized by CO2 asphyxiation and processed for paw and spleen weights (see FIG. 20A, B).
The rat adjuvant induced arthritis (AIA) model resembles the characteristics of RA in humans and has been widely used to study the impact of novel anti-inflammatory agents.

[2] = Plasma pharmacokinetics after a single s.c. dose of EC0746 or aminopterin
Method: Female Lewis rats with rounded tip jugular vein catheters (Harlan) were fed regular rodent diet and used in this study. The animals were given a single subcutaneous dose of EC0746 at 500 nmol/kg. Whole blood samples (300 μl) were collected from the animals at the following time points: 1 min, 10 min, 30 min, 1 h, 2 h, 3 h, 4 h, and 8 h after injection. The blood samples were placed into anti-coagulant tubes containing 1.7 mg/mL of K3-EDTA and 0.35 mg/mL of N-Maleoyl-beta-alanine (0.35 mg/mL). Plasma samples were obtained by centrifugation for 3 min at ˜2,000 g and stored at −80° C. The amount of EC0746 and its released base drugs (EC0470 & aminopterin) were determined by HPLC using the EC0746 injection solution as the standard (see FIG. 14). […] A similar method was used to determine the plasma pharmacokinetics of aminopterin (see FIG. 15).
Thus, the plasma concentrations of EC0746 and two primary metabolites, AMT and AMT hydrazide, were determined by LC/MS/MS after a single subcutaneous EC0746 administration. […] For comparison, the pharmacokinetics of subcutaneously dosed AMT (500 nmol/kg) was also examined (FIG. 33B).

[3] = Maximum tolerated dose (MTD) in healthy folate-deficient rats; type: in vivo
Method: Healthy rats were administered a subcutaneous injection of the indicated dose of aminopterin or EC0746 biweekly for 2 weeks; control animals, no treatment, 100 nmole/kg aminopterin, 50 nmole/kg aminopterin, 500 nmole/kg EC0746, or 2000 nmole/kg EC0746. The animals were weighed daily. See FIG. 16A, B. A dose of 0.1 μmol/kg of aminopterin in folate deficient rats is above the MTD; therefore, the projected MTD of EC0746 would be <0.5 μmol/kg based solely on ˜20% free drug release shown in the previous Example. However, the MTD of EC0746 is actually 2.0 μmol/kg, which is equivalent to 0.4 μmol/kg, or—8× higher than the MTD for free aminopterin. On a molar basis for total aminopterin, the MTD is 40× higher. The therapeutic index (MTD for healthy animals/ED50 for treatment of adjuvant-induced arthristis in female Lewis rats) for EC746 is about 9.5 (2000/210).
Since the toxicity of antifolates can be easily masked by rodent diets enriched with folate, healthy rats on a folate-deficient diet (Harlan) were used to determine the maximum-tolerated-dose levels (MTD) of EC0746, AMT and MTX. The animals were given biweekly injections of EC0746, AMT, and MTX for two weeks. The MTD dose was defined as the dose that had caused at least 13-14% weight loss combined with clinical signs of stress and at least one animal in the >MTD dose group needed to be euthanized. Standard hematologic and blood chemistry parameters were examined as needed along with histopathology. The MTDs of EC0746, MTX and AMT were determined to be 2000, 1000, and 50 nmol/kg, respectively. At above the MTD dose level, the main toxicities of EC0746 were similar to those of AMT and MTX, including manifested gastrointestinal distress (diarrhea), swollen muzzle, immunosuppression (bone marrow, thymus), low white-blood-cell count, low platelet count, and infections. […] Overall, EC0746 was approximately 40-fold less toxic than AMT and 2-fold less toxic than MTX on an equimolar basis in these folate-deficient animals; however, its toxicity profile at above MTD levels was not dissimilar from that of AMT and MTX.

[4] = molecular target: folate receptors (FR-α) of KB cells (Homo sapiens, UniProt P15328); conditions: competitive binding with 3H-folic acid, FR-α positive KB cells
Sequence of folate receptors (FR-α) of KB cells (P15328 25-234): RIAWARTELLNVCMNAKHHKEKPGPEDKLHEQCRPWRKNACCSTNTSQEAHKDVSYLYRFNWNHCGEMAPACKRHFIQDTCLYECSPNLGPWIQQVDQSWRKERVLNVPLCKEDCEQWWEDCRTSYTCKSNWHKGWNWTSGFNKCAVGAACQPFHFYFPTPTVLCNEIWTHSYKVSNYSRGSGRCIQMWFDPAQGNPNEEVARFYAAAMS

RAW264.7 cells = assay: XTT cell viability / proliferation assay; type: cell-based, murine
Method: After 2 h incubation, the drug-containing media were replaced and the cells were allowed to incubate further for 70 h. Four hours prior to the end of incubation, LPS was added to the treated cells at a final concentration of 100 ng/mL. 100 μL of the culture supernatants were collected for TNF-α analysis using a commercial ELISA kit.
RAW264.7 cells in 96-well plates were treated with vehicle (culture medium) or 10-fold serial dilutions of EC0932 without or with 100-fold excess free folate. The drug-containing medium was replaced after 2 h treatment and the cells were allowed to incubate further in standard medium for 70 h. Four hours prior to the end of incubation, LPS was added to the treated cells at a final concentration of 100 ng/mL. […] The cell viability was assessed by adding XTT (2,3-bis(2-methoxy-4-nitro-5-sulfo-phenyl)-2H-tetrazolium-5-carboxanilide) to the remaining medium for an additional 4 h following the manufacturer's instructions (Roche Applied Science, Indianapolis, Ind.).
At 4 h before the end of incubation, LPS (100 ng/ml) was added to the culture medium to stimulate cytokine production.

[5] = molecular target: folate-receptor-beta positive CHO-FR-β cells (Homo sapiens, UniProt P14207); conditions: displacement of 3H-folic acid
Sequence of folate-receptor-beta positive CHO-FR-β cells (P14207 17-230): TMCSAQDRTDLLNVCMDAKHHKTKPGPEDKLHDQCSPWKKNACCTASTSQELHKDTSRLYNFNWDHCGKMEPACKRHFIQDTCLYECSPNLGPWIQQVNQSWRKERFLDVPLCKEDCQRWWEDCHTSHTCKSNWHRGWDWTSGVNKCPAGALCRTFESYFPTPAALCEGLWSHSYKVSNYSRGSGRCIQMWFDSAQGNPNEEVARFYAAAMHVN

[6] = etanercept s.c. 10 mg/kg once every 3 days
[7] = single sc dose of EC0746, 500 nmole/kg, rats

Nc1nc(N)c2nc(CNc3ccc(C(=O)N[C@@H](CCC(=O)O)C(=O)O)cc3)cnc2n1 [aminopterin]
lethality to AIA rats ([1]; AMT mixed with free folic acid (1:1), 500 nmol/kg/dose, biweekly): 100% | delay of peak plasma appearance from the EC0746 Cmax ([2]; rat, in vivo, sc, 500 nmol/kg): 30 min | MTD at 2 weeks ([3]; rat, in vivo, folate deficient rats, sc biweekly for 2 weeks): < 0.1 µmol/kg

Nc1nc2ncc(CNc3ccc(C(=O)N[C@@H](CCC(=O)N[C@H](CC(=O)O)C(=O)N[C@H](CC(=O)O)C(=O)O)C(=O)O)cc3)nc2c(=O)[nH]1 [EC0923]
effect on development or severity of AIA ([1]; EC0923 alone, 125 μmol/kg/dose biweekly 2 weeks): did not have any impact on the development or severity of the disease | dorsal to ventral paw thickness ([1]; EC0923 alone, 125 μmol/kg/dose biweekly, arthritic control ~9.8, healthy ~5.8): ~9.4 mm | mean sum of histology scores (maximum 20) ([1]; EC0923 alone, 125 μmol/kg/dose biweekly, arthritic control ~15.3): 14.2 | Relative affinity to folate receptors (folic acid set as 1) [4]: 0.84

etanercept
Splenomagly (% increase in spleen weight relative to healthy rats) ([1]; sc, 10 mg/kg q3d): 42 ± 7% | % Inhibition in paw edema ([1]; sc, 10 mg/kg q3d, Day 24): 46 ± 9% | % Weight loss ([1]; sc, 10 mg/kg q3d): −15 ± 2% | decrease in dorsal to ventral paw thickness [1, 6]: 40% | decrease in summed histological score [1, 6]: 43% | reduction in bone resorption (histology) [1, 6]: 55% | reduction in inflammation (histology) [1, 6]: 42%

N=c1[nH]c(N)nc2ncc(CNc3ccc(C(=O)N[C@@H](CCC(=O)NNC(=O)OCCSSC[C@H](NC(=O)[C@H](CCC(=O)NC[C@H](O)[C@@H](O)[C@H](O)[C@H](O)CO)NC(=O)[C@H](CCC(=O)O)NC(=O)[C@H](CCC(=O)NC[C@H](O)[C@@H](O)[C@H](O)[C@H](O)CO)NC(=O)[C@H](CCC(=O)O)NC(=O)[C@H](CCC(=O)NC[C@H](O)[C@@H](O)[C@H](O)[C@H](O)CO)NC(=O)CC[C@H](NC(=O)c4ccc(NCc5cnc6nc(N)[nH]c(=O)c6n5)cc4)C(=O)O)C(=O)O)C(=O)O)cc3)nc12 [EC0746]
EC50 (RAW264.7 cells; 2 h treatment, then 70-72 h in drug-free medium, read-out: EC50 (ED50), viability/proliferation of RAW264.7 cells, XTT assay): 0.3 nM and ~0.3 nM | bioavailability after subcutaneous administration ([2]; rats): bioavailable after subcutaneous administration | elimination half-life of EC0746 ([2]; single sc dose of EC0746, 500 nmol/kg, rats): ~35 min | Area Under Curve for free drug (aminopterin+aminopterin hydrazide) [2, 7]: 7.3 nmol·min/mL | Cmax for free drug (aminopterin+aminopterin hydrazide) [2, 7]: 34 nmol/L | Cmax for free drug as % of the total dose [2, 7]: 9.6% | time of Cmax for free drug (aminopterin+aminopterin hydrazide) [2, 7]: 60 min | therapeutic index (MTD for healthy animals/ED50 in AIA) ([3]; 2000/210): about 9.5 | MTD relative to MTD for free aminopterin, based on ~20% free drug release (0.4 μmol/kg equivalent) ([3]; rat, in vivo): 8 × | MTD relative to free aminopterin on a molar basis for total aminopterin ([3]; rat, in vivo): 40 × | gastrointestinal-associated toxicities at MTD dose ([3]; rats): showed less gastrointestinal-associated toxicities than AMT and MTX | Relative affinity to folate receptors (folic acid set as 1) [4]: 0.5 | Relative affinity to folate receptors (folic acid set as 1) [5]: 0.27

NNC(=O)CC[C@H](NC(=O)c1ccc(NCc2cnc3nc(N)nc(N)c3n2)cc1)C(=O)O [EC0470, aminopterin gamma-hydrazide]
potency on cell proliferation and LPS-stimulated TNF-α production (RAW264.7 cells; 72 h incubations of RAW264.7 macrophages): equally potent | delay of peak plasma appearance from the EC0746 Cmax ([2]; EC0746-dosed rats, sc 500 nmol/kg): 30 min | Tmax of released base drug in plasma ([2]; after single sc dose of EC0746, 500 nmol/kg, rats): ~1 h

CN(Cc1cnc2nc(N)nc(N)c2n1)c1ccc(C(=O)N[C@@H](CCC(=O)O)C(=O)O)cc1 [methotrexate]
Splenomagly (% increase in spleen weight relative to healthy rats) ([1]; oral, 250 nmol/kg biw): 42 ± 17% | % Inhibition in paw edema ([1]; oral, 250 nmol/kg biw, Day 24): 70 ± 5% | % Weight loss ([1]; oral, 250 nmol/kg biw): −14 ± 2% | % Weight loss ([1]; oral, 1650 nmol/kg qw): −10 ± 2% | % Inhibition in paw edema ([1]; oral, 1650 nmol/kg qw, calculated based on arthritis scores on Day 24): 47 ± 10 % | Splenomagly (% increase in spleen weight relative to healthy rats) ([1]; sc, 250 nmol/kg biw): 24 ± 3% | % Inhibition in paw edema ([1]; sc, 250 nmol/kg biw, Day 24): 78 ± 10% | % Weight loss ([1]; sc, 250 nmol/kg biw): −2 ± 4% | Splenomagly (% increase in spleen weight relative to healthy rats) ([1]; sc, 500 nmol/kg biw): 20 ± 4% | % Inhibition in paw edema ([1]; sc, 500 nmol/kg biw, Day 24): 88 ± 7% | % Weight loss ([1]; sc, 500 nmol/kg biw): −2 ± 7% | decrease in dorsal to ventral paw thickness ([1]; oral MTX 250 nmol/kg biweekly): 63% | decrease in summed histological score ([1]; oral MTX 250 nmol/kg biweekly): 73% | reductions in all scored histology parameters vs untreated controls ([1]; oral MTX 250 nmol/kg biweekly): 66-84% | blocking of anti-arthritic activity by folate competitor ([1]; s.c. MTX 250 nmol/kg/dose with 500-fold excess EC0923): not significantly blocked by excess EC0923 | effect on development and severity of arthritis ([1]; s.c. MTX 250 nmol/kg/dose, 2 weeks): significantly improved the development and severity of arthritis | reduction of local (paw) and systemic (spleen) inflammation ([1]; sc 300 nmol/kg on days 10, 13, 17, 20): similarly active in reducing local (paw) and systemic (spleen) inflammation | Relative affinity to folate receptors (folic acid set as 1) [4]: 0.018 | Relative affinity to folate receptors (folic acid set as 1) [5]: 0.005
